Assay results published in the supplement of paper PMC4932681.
Structures can show the parent of a compound that is named as a salt.

What was measured:
T-47D Tam1 [1] = assay: relative IC50 (midpoint of fitted logistic curve, plateau may be below 50% inhibition; CellTiter-Glo viability); higher = less potent; settings: 4-OH-tamoxifen in medium 1 µM; 72 h
Outline: (§1)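 Breast cancer cell lines and their resistant derivatives were seeded into 384-well plates containing library drugs at five concentrations across a 10 000-fold range, with resistant lines kept in medium with 1 μM of the selecting drug. After 72 h at 37 °C, CellTiter-Glo viability was read on a PHERAstar and normalised to vehicle-only and positive controls. Logistic dose–response fits in the Breeze pipeline gave drug sensitivity score, relative IC50 (curve midpoint) and top-dose inhibition.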

BT-474 Tam2 [2] = assay: as above; settings: 4-OH-tamoxifen in medium 1 µM; 72 h
Outline: as §1

BT-474 Tam1 [3] = assay: as above; settings: 4-OH-tamoxifen in medium 1 µM; 72 h
Outline: as §1

MCF-7 [4] = assay: as above; settings: 72 h
Outline: as §1

ZR-75-1 Tam1 [5] = assay: as above; settings: 4-OH-tamoxifen in medium 1 µM; 72 h
Outline: as §1

T-47D Tam2 [6] = assay: as above; settings: 4-OH-tamoxifen in medium 1 µM; 72 h
Outline: as §1

T-47D [7] = assay: as above; settings: 72 h
Outline: as §1

ZR-75-1 [8] = assay: as above; settings: 72 h
Outline: as §1

ZR-75-1 Tam2 [9] = assay: as above; settings: 4-OH-tamoxifen in medium 1 µM; 72 h
Outline: as §1

BT-474 [10] = assay: as above; settings: 72 h
Outline: as §1

MCF-7 Tam1 [11] = assay: as above; settings: 4-OH-tamoxifen in medium 1 µM; 72 h
Outline: as §1

T-47D Tam1 [12] = assay: drug sensitivity score (DSS) (DSS (dimensionless)); higher = more sensitive; extreme values may be limits of the assay; settings: 4-OH-tamoxifen in medium 1 µM; 72 h
Outline: as §1

BT-474 Tam2 [13] = assay: as above; settings: 4-OH-tamoxifen in medium 1 µM; 72 h
Outline: as §1

BT-474 Tam1 [14] = assay: as above; settings: 4-OH-tamoxifen in medium 1 µM; 72 h
Outline: as §1

MCF-7 [15] = assay: as above; settings: 72 h
Outline: as §1

ZR-75-1 Tam1 [16] = assay: as above; settings: 4-OH-tamoxifen in medium 1 µM; 72 h
Outline: as §1

T-47D Tam2 [17] = assay: as above; settings: 4-OH-tamoxifen in medium 1 µM; 72 h
Outline: as §1

T-47D [18] = assay: as above; settings: 72 h
Outline: as §1

ZR-75-1 [19] = assay: as above; settings: 72 h
Outline: as §1

ZR-75-1 Tam2 [20] = assay: as above; settings: 4-OH-tamoxifen in medium 1 µM; 72 h
Outline: as §1

BT-474 [21] = assay: as above; settings: 72 h
Outline: as §1

MCF-7 Tam1 [22] = assay: as above; settings: 4-OH-tamoxifen in medium 1 µM; 72 h
Outline: as §1

SMILES | relative IC50 (T-47D Tam1 [1]) | relative IC50 (BT-474 Tam2 [2]) | relative IC50 (BT-474 Tam1 [3]) | relative IC50 (MCF-7 [4]; 4-OH-tamoxifen in medium 0 µM) | relative IC50 (T-47D Tam2 [6]) | relative IC50 (T-47D [7]; 4-OH-tamoxifen in medium 0 µM) | relative IC50 (T-47D [7]; 4-OH-tamoxifen in medium 1 µM) | relative IC50 (BT-474 [10]; 4-OH-tamoxifen in medium 0 µM) | relative IC50 (BT-474 [10]; 4-OH-tamoxifen in medium 1 µM) | relative IC50 (MCF-7 Tam1 [11]) | relative IC50 (MCF-7 [4]; 4-OH-tamoxifen in medium 1 µM) | relative IC50 (ZR-75-1 Tam1 [5]) | relative IC50 (ZR-75-1 [8]; 4-OH-tamoxifen in medium 0 µM) | relative IC50 (ZR-75-1 [8]; 4-OH-tamoxifen in medium 1 µM) | relative IC50 (ZR-75-1 Tam2 [9]) | drug sensitivity score (T-47D Tam1 [12]) | drug sensitivity score (BT-474 Tam2 [13]) | drug sensitivity score (BT-474 Tam1 [14]) | drug sensitivity score (MCF-7 [15]; 4-OH-tamoxifen in medium 0 µM) | drug sensitivity score (MCF-7 [15]; 4-OH-tamoxifen in medium 1 µM) | drug sensitivity score (ZR-75-1 Tam1 [16]) | drug sensitivity score (T-47D Tam2 [17]) | drug sensitivity score (T-47D [18]; 4-OH-tamoxifen in medium 0 µM) | drug sensitivity score (T-47D [18]; 4-OH-tamoxifen in medium 1 µM) | drug sensitivity score (ZR-75-1 [19]; 4-OH-tamoxifen in medium 0 µM) | drug sensitivity score (ZR-75-1 [19]; 4-OH-tamoxifen in medium 1 µM) | drug sensitivity score (ZR-75-1 Tam2 [20]) | drug sensitivity score (BT-474 [21]; 4-OH-tamoxifen in medium 0 µM) | drug sensitivity score (BT-474 [21]; 4-OH-tamoxifen in medium 1 µM) | drug sensitivity score (MCF-7 Tam1 [22])
c1ccc([C@H]2CN3CCSC3=N2)cc1 [Levamisole, (Tetramisole hydrochloride)] | > 10 µM | > 10 µM | > 10 µM | > 10 µM | > 10 µM | > 10 µM | > 10 µM | > 10 µM | > 10 µM | > 10 µM | > 10 µM | > 10 µM | > 10 µM | > 10 µM | > 10 µM | 0 | 0 | 0 | 0 | 0 | 0 | 0 | 0 | 0 | 0 | 0 | 0 | 0 | 0 | 0
O=C(O)CC[C@H]1CC[C@@](c2cc(F)ccc2F)(S(=O)(=O)c2ccc(Cl)cc2)CC1 [MK-0752] | > 1 µM | > 1 µM | > 1 µM | > 1 µM | > 1 µM | > 1 µM | > 1 µM | > 1 µM | > 1 µM | > 1 µM | > 1 µM | > 1 µM | > 1 µM | > 1 µM | > 1 µM | 0 | 0 | 0 | 0 | 0 | 0 | 0 | 0 | 0 | 0 | 0 | 0 | 0 | 0 | 0
Clc1ccc(C(c2ccccc2Cl)C(Cl)Cl)cc1 (stereo unspecified) [Mitotane] | > 10 µM | > 10 µM | > 10 µM | > 10 µM | > 10 µM | > 10 µM | > 10 µM | > 10 µM | > 10 µM | > 10 µM | > 10 µM | > 10 µM | > 10 µM | > 10 µM | > 10 µM | 0 | 0 | 0 | 0 | 0 | 0 | 0 | 0 | 0 | 0 | 0 | 0 | 0 | 0 | 0
COc1nc(N)nc2c1ncn2[C@@H]1O[C@H](CO)[C@@H](O)[C@@H]1O [Nelarabine] | > 10 µM | > 10 µM | > 10 µM | – | > 10 µM | > 10 µM | > 10 µM | > 10 µM | > 10 µM | > 10 µM | > 10 µM | > 10 µM | – | > 10 µM | > 10 µM | 0 | 0 | 0 | 0.277 | 0 | 0 | 0 | 0 | 0 | 0.0337 | 0 | 0 | 0 | 0 | 0

Continued, in another order:

relative IC50 (T-47D Tam1 [1]) | relative IC50 (BT-474 Tam2 [2]) | relative IC50 (BT-474 Tam1 [3]) | relative IC50 (MCF-7 [4]; 4-OH-tamoxifen in medium 0 µM) | relative IC50 (T-47D Tam2 [6]) | relative IC50 (T-47D [7]; 4-OH-tamoxifen in medium 0 µM) | relative IC50 (T-47D [7]; 4-OH-tamoxifen in medium 1 µM) | relative IC50 (BT-474 [10]; 4-OH-tamoxifen in medium 0 µM) | relative IC50 (BT-474 [10]; 4-OH-tamoxifen in medium 1 µM) | relative IC50 (MCF-7 Tam1 [11]) | relative IC50 (MCF-7 [4]; 4-OH-tamoxifen in medium 1 µM) | SMILES | relative IC50 (ZR-75-1 Tam1 [5]) | relative IC50 (ZR-75-1 [8]; 4-OH-tamoxifen in medium 0 µM) | relative IC50 (ZR-75-1 [8]; 4-OH-tamoxifen in medium 1 µM) | relative IC50 (ZR-75-1 Tam2 [9]) | drug sensitivity score (T-47D Tam1 [12]) | drug sensitivity score (BT-474 Tam2 [13]) | drug sensitivity score (BT-474 Tam1 [14]) | drug sensitivity score (MCF-7 [15]; 4-OH-tamoxifen in medium 0 µM) | drug sensitivity score (MCF-7 [15]; 4-OH-tamoxifen in medium 1 µM) | drug sensitivity score (ZR-75-1 Tam1 [16]) | drug sensitivity score (T-47D Tam2 [17]) | drug sensitivity score (T-47D [18]; 4-OH-tamoxifen in medium 0 µM) | drug sensitivity score (T-47D [18]; 4-OH-tamoxifen in medium 1 µM) | drug sensitivity score (ZR-75-1 [19]; 4-OH-tamoxifen in medium 0 µM) | drug sensitivity score (ZR-75-1 [19]; 4-OH-tamoxifen in medium 1 µM) | drug sensitivity score (ZR-75-1 Tam2 [20]) | drug sensitivity score (BT-474 [21]; 4-OH-tamoxifen in medium 0 µM) | drug sensitivity score (BT-474 [21]; 4-OH-tamoxifen in medium 1 µM) | drug sensitivity score (MCF-7 Tam1 [22])
> 10 µM | > 10 µM | > 10 µM | > 10 µM | > 10 µM | > 10 µM | > 10 µM | > 10 µM | > 10 µM | > 10 µM | – | Nc1cccc2c1CN(C1CCC(=O)NC1=O)C2=O (stereo unspecified) [Lenalidomide] | > 10 µM | > 10 µM | > 10 µM | > 10 µM | 0 | 0 | 0 | 0 | 1.39 | 0 | 0 | 0 | 0 | 0 | 0 | 0 | 0 | 0 | 0
> 1 µM | > 1 µM | > 1 µM | > 1 µM | > 1 µM | > 1 µM | > 1 µM | > 1 µM | > 1 µM | > 1 µM | > 1 µM | Cc1ccc(F)c(NC(=O)Nc2ccc(-c3cccc4[nH]nc(N)c34)cc2)c1 [Linifanib (ABT-869)] | > 1 µM | > 1 µM | > 1 µM | > 1 µM | 0 | 0 | 0 | 0 | 0 | 0 | 0 | 0 | 0 | 0 | 0 | 0 | 0 | 0 | 0
> 10 µM | > 10 µM | > 10 µM | > 10 µM | > 10 µM | > 10 µM | > 10 µM | > 10 µM | > 10 µM | > 10 µM | > 10 µM | COc1c2occc2cc2ccc(=O)oc12 [Methoxsalen] | > 10 µM | > 10 µM | > 10 µM | > 10 µM | 0 | 0 | 0 | 0 | 0 | 0 | 0 | 0 | 0 | 0 | 0 | 0 | 0 | 0 | 0
> 10 µM | > 10 µM | > 10 µM | > 10 µM | > 10 µM | > 10 µM | > 10 µM | > 10 µM | > 10 µM | > 10 µM | – | C[C@H]1C[C@@H]2[C@H]([C@@H](O)C[C@@]3(C)[C@H]2CC[C@]3(O)C(=O)CO)[C@@]2(C)C=CC(=O)C=C12 [Methylprednisolone] | > 10 µM | > 10 µM | > 10 µM | > 10 µM | 0 | 0 | 0 | 0 | 0.455 | 0 | 0 | 0 | 0 | 0 | 0 | 0 | 0 | 0 | 0
